Experimental data from patent US10336762B2 (priority 2017, dated 2019).
Read-outs that look alike come from different tables or passages of the source.

Tests used:
TNFα = experiment: cells; assay type: cell-based, human; settings: LPS-stimulated human monocytes, TNFα by TR-FRET, read-out: EC50 TNF
IRAK4 enzyme = IRAK4 enzyme (Homo sapiens (Human), UniProt Q9NWZ3); experiment: biochemical; assay type: biochemical; settings: IRAK4 enzyme, TR-FRET, 500 μM ATP
IRAK4 enzyme, sequence (Q9NWZ3 whole entry): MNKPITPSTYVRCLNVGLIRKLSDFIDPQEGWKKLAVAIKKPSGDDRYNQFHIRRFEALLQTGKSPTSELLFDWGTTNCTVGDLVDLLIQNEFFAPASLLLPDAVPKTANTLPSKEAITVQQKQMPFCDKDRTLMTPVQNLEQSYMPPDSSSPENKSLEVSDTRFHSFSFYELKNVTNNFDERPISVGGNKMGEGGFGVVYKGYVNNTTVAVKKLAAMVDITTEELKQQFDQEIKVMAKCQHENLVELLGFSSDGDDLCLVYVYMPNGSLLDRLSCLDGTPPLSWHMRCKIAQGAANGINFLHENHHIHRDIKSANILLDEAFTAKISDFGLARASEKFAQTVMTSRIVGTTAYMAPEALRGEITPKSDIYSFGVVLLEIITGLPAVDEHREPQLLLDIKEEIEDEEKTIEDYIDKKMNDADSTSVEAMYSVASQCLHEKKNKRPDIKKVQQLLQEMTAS

Compound: COC(=O)N1CCC12CC(Nc1cc(-c3ccc4cc(C#N)cnn34)ncc1C(=O)NC[C@@H](F)C(C)(C)O)C2 (stereo partly drawn) [Example 909, (4S,6r)-methyl 6-((2-(3-cyanopyrrolo[1,2-b]pyridazin-7-yl)-5-(((R)-2-fluoro-3-hydroxy-3-methylbutyl)carbamoyl)pyridin-4-yl)amino)-1-azaspiro[3.3]heptane-1-carboxylate]
- EC50 (TNFα): 372 nM
- IC50 (IRAK4 enzyme): 15 nM

Compound: CC(C)(O)[C@H](F)CNC(=O)c1cnc(-c2ccc3cc(C#N)cnn23)cc1NC1CC2(CCN2CC(F)(F)F)C1 (stereo partly drawn) [Example 910, 6-(3-cyanopyrrolo[1,2-b]pyridazin-7-yl)-N-((R)-2-fluoro-3-hydroxy-3-methylbutyl)-4-(((4S,6r)-1-(2,2,2-trifluoroethyl)-1-azaspiro[3.3]heptan-6-yl)amino)nicotinamide]
- EC50 (TNFα): 1210 nM
- IC50 (IRAK4 enzyme): 10 nM

Compound: CC(C)(O)[C@H](F)CNC(=O)c1cnc(-c2ccc3cc(C#N)cnn23)cc1NC1CC2(CCN2)C1 (stereo partly drawn) [Example 911, 4-(((4R,6s)-1-azaspiro[3.3]heptan-6-yl)amino)-6-(3-cyanopyrrolo[1,2-b]pyridazin-7-yl)-N-((R)-2-fluoro-3-hydroxy-3-methylbutyl) nicotinamide]
- EC50 (TNFα): 318 nM
- IC50 (IRAK4 enzyme): 7 nM

Compound: COC(=O)N1CCC12CC(Nc1cc(-c3ccc4cc(C#N)cnn34)ncc1C(=O)NC[C@@H](F)C(C)(C)O)C2 (stereo partly drawn) [Example 912, (4R,6s)-methyl 6-((2-(3-cyanopyrrolo[1,2-b]pyridazin-7-yl)-5-(((R)-2-fluoro-3-hydroxy-3-methylbutyl)carbamoyl)pyridin-4-yl)amino)-1-azaspiro[3.3]heptane-1-carboxylate]
- EC50 (TNFα): 176 nM
- IC50 (IRAK4 enzyme): 6 nM

Compound: CC(C)(O)[C@H](F)CNC(=O)c1cnc(-c2ccc3cc(C#N)cnn23)cc1NC1CC2(CCN2CC(F)(F)F)C1 (stereo partly drawn) [Example 913, 6-(3-cyanopyrrolo[1,2-b]pyridazin-7-yl)-N-((R)-2-fluoro-3-hydroxy-3-methylbutyl)-4-(((4R,6s)-1-(2,2,2-trifluoroethyl)-1-azaspiro[3.3]heptan-6-yl)amino)nicotinamide]
- EC50 (TNFα): 226 nM
- IC50 (IRAK4 enzyme): 3 nM

Compound: CC(C)(O)[C@H](F)CNC(=O)c1cnc(-c2ccc3cc(C#N)cnn23)cc1Nc1cnn([C@H]2CNC[C@H]2F)c1 [Example 914, 6-(3-cyanopyrrolo[1,2-b]pyridazin-7-yl)-N-((R)-2-fluoro-3-hydroxy-3-methylbutyl)-4-((1-((3S,4R)-4-fluoropyrrolidin-3-yl)-1H-pyrazol-4-yl)amino)nicotinamide]
- EC50 (TNFα; Homo sapiens, Monocyte): 13 nM
- IC50 (IRAK4 enzyme): < 1 nM

Compound: COC[C@@H]1CCN1c1ccc(Nc2cc(-c3ccc4cc(C#N)cnn34)ncc2C(=O)NC[C@@H](F)C(C)(C)O)cn1 [Example 915, 6-(3-cyanopyrrolo[1,2-b]pyridazin-7-yl)-N-((R)-2-fluoro-3-hydroxy-3-methylbutyl)-4-((6-((S)-2-(methoxymethyl)azetidin-1-yl)pyridin-3-yl)amino) nicotinamide]
- EC50 (TNFα; Homo sapiens, Monocyte): 28 nM
- IC50 (IRAK4 enzyme): 1 nM

Compound: CC(C)(O)[C@H](F)CNC(=O)c1cnc(-c2ccc3cc(C#N)cnn23)cc1NC[C@H]1COCCN1 [Example 916, 6-(3-cyanopyrrolo[1,2-b]pyridazin-7-yl)-N-((R)-2-fluoro-3-hydroxy-3-methylbutyl)-4-((((S)-morpholin-3-yl)methyl)amino)nicotinamide]
- EC50 (TNFα; Homo sapiens, Monocyte): 88 nM
- IC50 (IRAK4 enzyme): 3 nM

Compound: CC(C)(O)[C@H](F)CNC(=O)c1cnc(-c2ccc3cc(C#N)cnn23)cc1NC[C@@H]1COCCN1 [Example 917, 6-(3-cyanopyrrolo[1,2-b]pyridazin-7-yl)-N-((R)-2-fluoro-3-hydroxy-3-methylbutyl)-4-((((R)-morpholin-3-yl)methyl)amino)nicotinamide]
- EC50 (TNFα; Homo sapiens, Monocyte): 72 nM
- IC50 (IRAK4 enzyme): 1 nM

Compound: COC(=O)N1CCOC[C@H]1CNc1cc(-c2ccc3cc(C#N)cnn23)ncc1C(=O)NC[C@@H](F)C(C)(C)O [Example 918, (R)-methyl 3-(((2-(3-cyano-pyrrolo[1,2-b]pyridazin-7-yl)-5-(((R)-2-fluoro-3-hydroxy-3-methylbutyl)carbamoyl)pyridin-4-yl)amino)methyl)morpholine-4-carboxylate]
- EC50 (TNFα; Homo sapiens, Monocyte): 416 nM
- IC50 (IRAK4 enzyme): 31 nM

Compound: COC(=O)N1CCOC[C@@H]1CNc1cc(-c2ccc3cc(C#N)cnn23)ncc1C(=O)NC[C@@H](F)C(C)(C)O [Example 919, (S)-methyl 3-(((2-(3-cyano-pyrrolo[1,2-b]pyridazin-7-yl)-5-(((R)-2-fluoro-3-hydroxy-3-methylbutyl)carbamoyl)pyridin-4-yl)amino)methyl)morpholine-4-carboxylate]
- EC50 (TNFα; Homo sapiens, Monocyte): 707 nM
- IC50 (IRAK4 enzyme): 37 nM

Compound: CC(C)(O)[C@H](F)CNC(=O)c1cnc(-c2ccc3cc(C#N)cnn23)cc1Nc1cnc(N2CC3CC(C2)O3)nc1 [Example 920, 4-((2-(6-oxa-3-aza-bicyclo[3.1.1]heptan-3-yl)pyrimidin-5-yl)amino)-6-(3-cyanopyrrolo[1,2-b]pyridazin-7-yl)-N-((R)-2-fluoro-3-hydroxy-3-methyl-butyl)nicotinamide]
- EC50 (TNFα; Homo sapiens, Monocyte): 8 nM
- IC50 (IRAK4 enzyme): < 1 nM

Compound: CC(C)(O)[C@H](F)CNC(=O)c1cnc(-c2ccc3cc(C#N)cnn23)cc1Nc1cnc(N2CCNCC2)nc1 [Example 921, (R)-6-(3-cyanopyrrolo[1,2-b]pyridazin-7-yl)-N-(2-fluoro-3-hydroxy-3-methyl-butyl)-4-((2-(piperazin-1-yl)pyrimidin-5-yl)amino) nicotinamide]
- EC50 (TNFα; Homo sapiens, Monocyte): 45 nM
- IC50 (IRAK4 enzyme): < 1 nM

Compound: CC(C)(O)[C@H](F)CNC(=O)c1cnc(-c2ccc3cc(C#N)cnn23)cc1Nc1ccc(N2CC3CC(C2)O3)nc1 [Example 922, 4-((6-(6-oxa-3-azabicyclo[3.1.1]heptan-3-yl)pyridin-3-yl)amino)-6-(3-cyanopyrrolo[1,2-b]pyridazin-7-yl)-N-((R)-2-fluoro-3-hydroxy-3-methylbutyl)nicotinamide]
- EC50 (TNFα; Homo sapiens, Monocyte): 42 nM
- IC50 (IRAK4 enzyme): < 1 nM

Compound: N#Cc1cnn2c(-c3cc(NC45CCC(O)(CC4)CC5)c(C(=O)NCC(=O)N4CCC4)cn3)ccc2c1 [Example 923, N-(2-(azetidin-1-yl)-2-oxoethyl)-6-(3-cyanopyrrolo[1,2-b]pyridazin-7-yl)-4-((4-hydroxybicyclo[2.2.2]octan-1-yl)amino) nicotinamide]
- EC50 (TNFα; Homo sapiens, Monocyte): 52 nM
- IC50 (IRAK4 enzyme): < 1 nM

Compound: CC1(C)CC1CNC(=O)c1cnc(-c2ccc3cc(C#N)cnn23)cc1NC12CCC(O)(CC1)CC2 (centres unmarked) [Example 924, 6-(3-cyanopyrrolo[1,2-b]pyridazin-7-yl)-N-((2,2-dimethylcyclopropyl)methyl)-4-((4-hydroxy-bicyclo[2.2.2]octan-1-yl)amino)nicotinamide]
- EC50 (TNFα; Homo sapiens, Monocyte): 119 nM
- IC50 (IRAK4 enzyme): 1 nM

Compound: Cn1cncc1CNC(=O)c1cnc(-c2ccc3cc(C#N)cnn23)cc1NC12CCC(O)(CC1)CC2 [Example 925, 6-(3-cyanopyrrolo[1,2-b]pyridazin-7-yl)-4-((4-hydroxybicyclo[2.2.2]octan-1-yl)amino)-N-((1-methyl-1H-imidazol-5-yl)methyl)nicotinamide]
- EC50 (TNFα; Homo sapiens, Monocyte): 583 nM
- IC50 (IRAK4 enzyme): 4 nM

Compound: Cn1cc(CNC(=O)c2cnc(-c3ccc4cc(C#N)cnn34)cc2NC23CCC(O)(CC2)CC3)cn1 [Example 926, 6-(3-cyanopyrrolo[1,2-b]pyridazin-7-yl)-4-((4-hydroxybicyclo[2.2.2]octan-1-yl)amino)-N-((1-methyl-1H-pyrazol-4-yl)methyl)nicotinamide]
- EC50 (TNFα; Homo sapiens, Monocyte): 192 nM
- IC50 (IRAK4 enzyme): 2 nM

Compound: CC(C)(O)[C@H](F)CNC(=O)c1cnc(-c2ccc3cc(C#N)cnn23)cc1NC1CC(CNC(=O)C2CCC2)C1 (stereo partly drawn) [Example 927, 6-(3-cyanopyrrolo[1,2-b]pyridazin-7-yl)-4-(((1r,3R)-3-(cyclobutanecarboxamido-methyl)cyclobutyl)amino)-N-((R)-2-fluoro-3-hydroxy-3-methylbutyl)nicotinamide]
- EC50 (TNFα; Homo sapiens, Monocyte): 22 nM
- IC50 (IRAK4 enzyme): < 1 nM

Compound: Cn1ccnc1CNC(=O)c1cnc(-c2ccc3cc(C#N)cnn23)cc1NC12CCC(O)(CC1)CC2 [Example 928, 6-(3-cyanopyrrolo[1,2-b]pyridazin-7-yl)-4-((4-hydroxybicyclo[2.2.2]octan-1-yl)amino)-N-((1-methyl-1H-imidazol-2-yl)methyl)nicotinamide]
- EC50 (TNFα; Homo sapiens, Monocyte): 71 nM
- IC50 (IRAK4 enzyme): 1 nM

Compound: Cn1cnc(CNC(=O)c2cnc(-c3ccc4cc(C#N)cnn34)cc2NC23CCC(O)(CC2)CC3)c1 [Example 929, 6-(3-cyanopyrrolo[1,2-b]pyridazin-7-yl)-4-((4-hydroxybicyclo[2.2.2]octan-1-yl)amino)-N-((1-methyl-1H-imidazol-4-yl)methyl)nicotinamide]
- EC50 (TNFα; Homo sapiens, Monocyte): 126 nM
- IC50 (IRAK4 enzyme): 1 nM

Compound: N#Cc1cnn2c(-c3cc(NC45CCC(O)(CC4)CC5)c(C(=O)NCc4ccccn4)cn3)ccc2c1 [Example 930, 6-(3-cyanopyrrolo[1,2-b]pyridazin-7-yl)-4-((4-hydroxybicyclo[2.2.2]octan-1-yl)amino)-N-(pyridin-2-ylmethyl)nicotinamide]
- EC50 (TNFα; Homo sapiens, Monocyte): 147 nM
- IC50 (IRAK4 enzyme): 2 nM

Compound: N#Cc1cnn2c(-c3cc(NC45CCC(O)(CC4)CC5)c(C(=O)NCc4cccnc4)cn3)ccc2c1 [Example 931, 6-(3-cyanopyrrolo[1,2-b]pyridazin-7-yl)-4-((4-hydroxybicyclo[2.2.2]octan-1-yl)amino)-N-(pyridin-3-ylmethyl) nicotinamide]
- EC50 (TNFα; Homo sapiens, Monocyte): 163 nM
- IC50 (IRAK4 enzyme): 3 nM

Compound: N#Cc1cnn2c(-c3cc(NC45CCC(O)(CC4)CC5)c(C(=O)NCc4ccncc4)cn3)ccc2c1 [Example 932, 6-(3-cyanopyrrolo[1,2-b]pyridazin-7-yl)-4-((4-hydroxybicyclo[2.2.2]octan-1-yl)amino)-N-(pyridin-4-ylmethyl) nicotinamide]
- EC50 (TNFα; Homo sapiens, Monocyte): 168 nM
- IC50 (IRAK4 enzyme): 3 nM

Compound: N#Cc1cnn2c(-c3cc(NC45CCC(O)(CC4)CC5)c(C(=O)NCc4ncccn4)cn3)ccc2c1 [Example 933, 6-(3-cyanopyrrolo[1,2-b]pyridazin-7-yl)-4-((4-hydroxybicyclo[2.2.2]octan-1-yl)amino)-N-(pyrimidin-2-ylmethyl)nicotinamide]
- EC50 (TNFα; Homo sapiens, Monocyte): 269 nM
- IC50 (IRAK4 enzyme): 4 nM
